Legend:
Format in all cases: cell-based, rat
Neuregulin-β = assay: 2-D-PAGE / MALDI-TOF-MS / ESI-MS of glutamate-induced changes in hippocampal proteins; conditions: for Quantity of Neu-β (32 kDa spot) in 2-D-PAGE: FIG. 4: B=glutamate, C=glutamate+MK-801 (10 μM MK-801)
Excerpt: Hippocampal cells were stimulated with stimulation buffer (in mM): NaCl (125), KCL (5), CaCl2 (2-6), MgCl2 (0.8) glucose (5-10), HEPES (20), L-glutamate (0.01-0.1), glycine (0.01), bicucullin (0.01), pH 7.2; (A=control, B=glutamate, C=glutamate+MK-801; MK-801 is a specific glutamate receptor antagonist). In this connection, the measured or control quantity indicative of performance was a fluorescence signal measured using Fura-2, which signal is proportional to the calcium concentration (all the substances can be found in chemical catalogues supplied by Torris or Sigma).
Furthermore, proteins which change under the chosen experimental conditions, or otherwise behave in a conspicuous manner, are characterized and identified using the techniques of proteome research, namely by means of two-dimensional gel electrophoresis, MALDI-TOF-MS and ESI-MS.
Neuregulin-β was identified by means of two-dimensional PAGE using isoelectric focusing and employing immobilized, nonlinear pH gradients of from 3 to 10 and linear gradients of from 4 to 7 as the first dimension and SDS-PAGE (12% acrylamide) as the second dimension.
The protein was excised from the gels, subjected to a trypsin cleavage within the gel and subsequently [lacuna] mass-spectroscopically by means of MALDI-TOF mass fingerprint and ESI peptide sequencing (Corthals et al., Identification of Proteins by Mass-Spectrometry, in: Proteome Research, Two-Dimensional Gel-Electrophoresis and Identification Methods, Thierry Rabilloud, Ed., Springer, Berlin (2000), 197-232).
The identity of the protein was confirmed by analyzing selected peptides by means of MS/MS analysis using ion traps, electrospray, mass spectroscopy of the peptide mixture, which was not fractionated and which had previously been analyzed by MALDI-TOF. The MS/MS analysis of m/z 798.4 was sufficient in order, inter alia, to identify the 88-94 peptide of neuregulin-β. The MS/MS analysis of m/z=842.7 confirmed the sequence of the peptide around position 81-87. […]

hippocampal cells [1] = assay: Intracellular 26Mg stable isotopic tracer by ICP-MS; conditions: hippocampal neurons, 100 μm glutamate for 30 seconds, +22° C.; control 25 nM/mg of protein
Procedure: (§1) Suitable cell culture systems, in the case of neuregulin-β hippocampal primary cultures obtained from prenatal or neonatal rats (described in, for example, “Rat hippocampal neurons in low-density culture”, K. Goslin, H. Asmussen, G. Banker; in “Culturing Nerve Cells, 2nd edition 1998, pp. 339 ff; K. Goslin and G. Banker, eds. MIT Press, Cambridge, Mass., USA), are cultured on the above-described slides, introduced into the flow cell and initially characterized microscopically (morphological micrographs, etc. in the phase contrast microscope). […]
(§2) Almost in parallel to this, the perfusate is subjected to a synchronized fractionation and analysis; in the case of hippocampal neurons, of neurotransmitters, by means of HPLC using fluorescence detection, in the case of other low molecular weight extracellular components, by means of EMI-MS, and in the case of stable isotopic tracers and metal ions, by means of ICP-MS.
(§3) In the above-described set up, the following parameters were determined simultaneously or in an explicitly correlating manner. […] Accompanying this, are the simultaneous changes in the release of neurotransmitter (GABA), the influx of Mg into the cells, as detected using the stable isotopic tracer ^26Mg. […]

hippocampal cells [2] = assay: Fura-2 fluorescence imaging of intracellular calcium after glutamate stimulation in flow cell; conditions: hippocampal neurons
Excerpt: Hippocampal cells were stimulated with stimulation buffer (in mM): NaCl (125), KCL (5), CaCl2 (2-6), MgCl2 (0.8) glucose (5-10), HEPES (20), L-glutamate (0.01-0.1), glycine (0.01), bicucullin (0.01), pH 7.2; (A=control, B=glutamate, C=glutamate+MK-801; MK-801 is a specific glutamate receptor antagonist). In this connection, the measured or control quantity indicative of performance was a fluorescence signal measured using Fura-2, which signal is proportional to the calcium concentration (all the substances can be found in chemical catalogues supplied by Torris or Sigma). […]
The fluorescence signals in a larger number of cells are detected, in a time-resolved manner, in dependence on the stimulation conditions (temperature, active compound).
as §3

hippocampal cells [3] = assay: Neurotransmitter (GABA) release in perfusate by fluorescence HPLC; conditions: hippocampal neurons, 100 μm glutamate for 30 seconds, +22° C.; control 87 pMol
Procedure: as §1, §2, §3

C[C@]12N[C@H](Cc3ccccc31)c1ccccc12 [MK-801]
Quantity of Neu-β (32 kDa spot) in 2-D-PAGE (Neuregulin-β): only weakly present, or cannot be found at all

N[C@@H](CCC(=O)O)C(=O)O [glutamate, L-glutamate]
26Mg (intracellular) concentration (prestimulated) (hippocampal cells [1]): 45 nM/mg of nM/mg of protein
Quantity of Neu-β (32 kDa spot) in 2-D-PAGE (Neuregulin-β): substantially larger quantity
Neuregulin-β expression (prestimulated) (Neuregulin-β; hippocampal neurons, glutamate stimulated, control not expressed): Strongly
Calcium (intracellular) concentration (prestimulated) (hippocampal cells [2]; 100 μm glutamate for 30 seconds, +22° C., control 350 nM): 850 nM
Calcium inflow (Fura-2) (hippocampal cells [2]; qualitative): induces an inflow of calcium ions
GABA measured quantity (prestimulated) (hippocampal cells [3]): 74 pmol
